What was measured:
Format in all cases: cell-based
Conditions in all cases: 48, 72 and 96 hrs, supramolecular taxane conjugate
MDA-MB-231 = assay: Cell viability assay (MTT), breast cancer cell line
Protocol: (§1) Mammalian cells were grown in specific culture media, supplemented with 10% fetal bovine serum (FBS) and antibiotics in a humidified environment containing 5% CO2 at 37° C.
(§2) The effects of supramolecular taxane conjugates on the viability of cancer cells were measured using MTT assay (^6,7,8). Cells in 100 μl culture-media were plated in 96-well plates (3000-5000 cells/well) and allowed to adhere overnight in a humidified environment containing 5% CO2 at 37° C. Fresh media (100 μL) containing different concentrations of compounds were added to cells and incubated for 48, 72 and 96 hrs. Following incubation, cell viability was determined using the MTT assay. Similar assay was performed on normal human epithelial cells seeded in 100 μl media in 96-well plate (5000-10,000 cells per well), under identical incubation time and dosage of compounds, used for cancer cells to determine the effect of this targeted therapy on normal cells. The cell viability was plotted as dose-response curves using curve fitting.
(§3) The effects of compounds (New taxane 2 and 16) were evaluated in vitro in comparison with standard taxanes in breast cancer (MDA-MB-231), ovarian cancer (SKOV-3), lung cancer (A549), prostate cancer (DU-145), and colorectal cancer (HCT-116) cell lines.

SKOV-3 = assay: Cell viability assay (MTT), ovarian cancer cell line
Protocol: as §1, §2, §3

A549 = assay: Cell viability assay (MTT), lung cancer cell line
Protocol: as §1, §2, §3

DU-145 = assay: Cell viability assay (MTT), prostate cancer cell line
Protocol: as §1, §2, §3

HCT-116 = assay: Cell viability assay (MTT), colorectal cancer cell line
Protocol: as §1, §2, §3

Measured: efficacy on cell viability versus standard taxanes

CC(=O)O[C@H]1C(=O)[C@@]2(C)[C@H]([C@H](OC(=O)c3ccccc3)[C@]3(O)C[C@H](OC(=O)[C@H](OC(=O)CCC(=O)NCC(=O)O[C@H]4CC[C@@]5(C)C(=CCC6C5CC[C@@]5(C)C6CC[C@@H]5[C@H](C)CCCC(C)C)C4)[C@@H](NC(=O)c4ccccc4)c4ccccc4)C(C)=C1C3(C)C)[C@]1(OC(C)=O)CO[C@@H]1C[C@@H]2O (stereo partly shown) [compound 16]
comparable efficacy to standard taxanes: all assays above

CO[C@H]1C(=O)[C@]2(C)[C@@H](OC)C[C@H]3OC[C@@]3(OC(C)=O)[C@H]2[C@H](OC(=O)c2ccccc2)[C@]2(O)C[C@H](OC(=O)[C@H](OC(=O)CCC(=O)NCC(=O)O[C@H]3CC[C@@]4(C)C(=CCC5C4CC[C@@]4(C)C5CC[C@@H]4[C@H](C)CCCC(C)C)C3)[C@@H](NC(=O)OC(C)(C)C)c3ccccc3)C(C)=C1C2(C)C (stereo partly shown) [compound 2]
comparable efficacy to standard taxanes: all assays above

Reference: patent publication US10426753B2, “Supramolecular combinatorial therapeutics” (INVICTUS ONCOLOGY PVT. LTD., priority 2014, dated 2019)
